Test systems include NCI/ADR-RES; OVCAR-5; HOP-92; RXF 393; SK-MEL-28; Malme-3M; LOX IMVI; EKVX; A549; NCI-H460; HCT-116; TK-10; OVCAR-8; HCT-15; HOP-62; SK-MEL-5; UACC-62; SNB-75; 786-0; UACC-257.
Experiment in all cases: NCI anticancer screen, dose series, 48 h

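Following 48 hours of exposure in 96-well plates, responses at five concentrations were used to interpolate endpoints linearly. GI50 is the concentration that inhibits growth by half.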 Active and inactive are the calls of the source. Cut-off read from the data, not from the text of the source: active = GI50 up to about 1.1 µM and inactive = higher.

Take `Cc1cc(C)c(O)c(Cc2cccc(Cc3cc(C)cc(C)c3O)c2O)c1`: the GI50 with NCI/ADR-RES, in the test with OVCAR-5, with HOP-92, with RXF 393, with SK-MEL-28 and in the test on Malme-3M was > 100 µM (inactive) each time. Further, the GI50 with LOX IMVI, in the test with EKVX, in the test on A549, with NCI-H460, with HCT-116 and in the test with TK-10 was > 100 µM (inactive) each time. For the same molecule, the GI50 was > 100 µM (inactive) with OVCAR-8; greater than 100 µM in the test with HCT-15; > 100 µM (inactive) in the test on HOP-62; > 100 µM (inactive) in the test on SK-MEL-5; > 100 µM (inactive) with UACC-62; > 100 µM (inactive) with SNB-75. Further, the GI50 in the test with 786-0 and in the test with UACC-257 was > 100 µM (inactive) in each case.
`NC(=O)c1ccc[n+](C2=C([N-]S(=O)(=O)c3ccccc3)C(=O)c3ccccc3C2=O)c1`: the GI50 with NCI/ADR-RES was 15.8 µM (inactive); in the test on OVCAR-5, 19.1 µM (inactive); in the test with HOP-92 it was 13.6 µM (inactive); with RXF 393 it was 15.8 µM (inactive); with SK-MEL-28 it was 16 µM (inactive); in the test with Malme-3M it was 6.22 µM (inactive). The GI50 with LOX IMVI is 12.9 µM (inactive); with EKVX, 14.3 µM (inactive); in the test with A549, 19.3 µM (inactive); with NCI-H460 it was 17.9 µM (inactive); in the test on HCT-116, 17.5 µM (inactive); with TK-10, 20.4 µM (inactive). Moreover, the GI50 was 14.9 µM (inactive) with OVCAR-8; 23.3 µM in the test with HCT-15; 17.9 µM (inactive) in the test with HOP-62; 5.51 µM (inactive) in the test on SK-MEL-5; 17.9 µM (inactive) with UACC-62; 14.4 µM (inactive) in the test with SNB-75. In addition, the values for the GI50 with 786-0 and with UACC-257 were 17.8 µM (inactive) and 14.2 µM (inactive), respectively.
With `CSC(=S)Nc1cc(C)ccn1`, the GI50 was 60.5 µM (inactive) with NCI/ADR-RES; > 100 µM (inactive) in the test on OVCAR-5; 79.3 µM (inactive) in the test with HOP-92; > 100 µM (inactive) in the test with RXF 393; > 100 µM (inactive) in the test with SK-MEL-28; 61.4 µM (inactive) in the test with Malme-3M. Further, the GI50 in the test with LOX IMVI is > 100 µM (inactive); in the test with EKVX, > 100 µM (inactive); with A549, > 100 µM (inactive); in the test on NCI-H460, 85.9 µM (inactive); with HCT-116, 70.5 µM (inactive); in the test on TK-10 it was > 100 µM (inactive). The GI50 with OVCAR-8 is > 100 µM (inactive); with HCT-15, greater than 100 µM; in the test on HOP-62 it was > 100 µM (inactive); in the test on SK-MEL-5 it was 16.7 µM (inactive); in the test with UACC-62, > 100 µM (inactive); in the test with SNB-75 it was 29 µM (inactive). Besides, the results for the GI50 in the test with 786-0 and with UACC-257 were 75.2 µM (inactive) and > 100 µM (inactive), respectively.
For `CC(=O)OC12CC[N+]3(C)CCCCC3C1=Nc1ccccc12` (stereo not given), the GI50 in the test with NCI/ADR-RES, in the test with OVCAR-5, in the test with HOP-92, with RXF 393, in the test with SK-MEL-28 and in the test on Malme-3M was > 100 µM (inactive) throughout. Also, the GI50 in the test on LOX IMVI is > 100 µM (inactive); with EKVX, 17.4 µM (inactive); with A549, 40.5 µM (inactive); with NCI-H460, > 100 µM (inactive); with HCT-116, > 100 µM (inactive); in the test on TK-10, > 100 µM (inactive). Also, the GI50 in the test with OVCAR-8 was > 100 µM (inactive); with HCT-15 it was greater than 100 µM; in the test on HOP-62, > 100 µM (inactive); in the test on SK-MEL-5 it was > 100 µM (inactive); in the test with UACC-62 it was > 100 µM (inactive); with SNB-75, > 100 µM (inactive). The GI50 in the test with 786-0 and in the test with UACC-257 was > 100 µM (inactive) in each case.
For the molecule `CCCCCCCCCCCCCCCCOCC(Cl)CP(=O)(O)OP(=O)(O)OCC1OC(n2cnc3c(N)ncnc32)C(O)C1O` (stereo not given), the GI50 in the test on NCI/ADR-RES was > 100 µM (inactive); in the test with OVCAR-5 it was > 100 µM (inactive); in the test with HOP-92 it was > 100 µM (inactive); in the test with RXF 393 it was 61.8 µM (inactive); in the test with SK-MEL-28, > 100 µM (inactive); with Malme-3M, > 100 µM (inactive). For the same molecule, the GI50 was > 100 µM (inactive) in the test with LOX IMVI; > 100 µM (inactive) with EKVX; > 100 µM (inactive) with A549; 47.5 µM (inactive) with NCI-H460; 67 µM (inactive) in the test on HCT-116; > 100 µM (inactive) in the test on TK-10. Also, the GI50 in the test on OVCAR-8 was > 100 µM (inactive); in the test on HCT-15, greater than 100 µM; in the test with HOP-62 it was > 100 µM (inactive); with SK-MEL-5 it was > 100 µM (inactive); in the test with UACC-62, > 100 µM (inactive); in the test with SNB-75, > 100 µM (inactive). Also, the GI50 with 786-0 and in the test on UACC-257 was > 100 µM (inactive) each time.
Take `C=C1C(=O)O[C@@H]2/C=C(/C)[C@@H](OC(C)=O)C[C@@H](O)/C(C)=C\[C@@H](OC(=O)[C@]3(C)O[C@@H]3C)[C@@H]12`: the GI50 is 46.6 µM (inactive) with NCI/ADR-RES; 18.6 µM (inactive) in the test with OVCAR-5; 12.7 µM (inactive) in the test with HOP-92; 15.5 µM (inactive) with RXF 393; 10.9 µM (inactive) in the test on SK-MEL-28; 2.86 µM (inactive) in the test on Malme-3M. In addition, the GI50 with LOX IMVI was 7.26 µM (inactive); in the test on EKVX, 11 µM (inactive); in the test with A549 it was 31.2 µM (inactive); in the test with NCI-H460 it was 26.3 µM (inactive); in the test on HCT-116 it was 3.89 µM (inactive); in the test with TK-10, 15.6 µM (inactive). In addition, the GI50 was 13.1 µM (inactive) in the test on OVCAR-8; 12.9 µM with HCT-15; 40.6 µM (inactive) with HOP-62; 11.4 µM (inactive) in the test on SK-MEL-5; 16.1 µM (inactive) in the test with UACC-62; 19.5 µM (inactive) in the test on SNB-75. For the same molecule, the GI50 with 786-0 was 4.57 µM (inactive); with UACC-257, 15.7 µM (inactive).
On to `C[C@@H]1C[C@H](O)[C@]2(O)O[C@@H]3C[C@@]4(C=O)[C@@H](CC[C@@H]5[C@@H]4CC[C@]4(C)[C@@H](C6=CC(=O)OC6)CC[C@]54O)C[C@H]3O[C@@H]2O1` [CALOTROPIN], for which the GI50 is 0.0206 µM (active) in the test on NCI/ADR-RES; 0.126 µM (active) in the test with OVCAR-5; 0.0545 µM (active) in the test on HOP-92; 0.0176 µM (active) in the test on RXF 393; 0.112 µM (active) in the test with SK-MEL-28; 0.0167 µM (active) with Malme-3M. The GI50 is 0.0231 µM (active) with LOX IMVI; 0.0178 µM (active) in the test on EKVX; 0.014 µM (active) in the test with A549; 0.0187 µM (active) in the test on NCI-H460; 0.0193 µM (active) in the test with HCT-116; 0.0254 µM (active) in the test on TK-10. Further, the GI50 in the test on OVCAR-8 is 0.0348 µM (active); in the test on HCT-15 it was 0.0327 µM; in the test with HOP-62 it was 0.0244 µM (active); in the test on SK-MEL-5, 0.0278 µM (active); in the test on UACC-62, 0.0718 µM (active); in the test on SNB-75, 0.0689 µM (active). The GI50 is 0.0156 µM (active) in the test with 786-0 and 0.0592 µM (active) in the test with UACC-257.

Values taken from ChEMBL document CHEMBL1201862, “PubChem BioAssay data set” (2004).
